Bridges are numbered along the chain shown (N, C = ends). Where no end group is shown, it is not given here.
Assays:
HT1080 cells = assay: Cell adhesion test (colorimetric, crystal violet) on immobilized peptide; format: cell-based, Human; settings: for adhesion response dependent on the amount of peptide immobilized in the wells: K substitution variants of LRIRATYG, Example 6, FIG. 5
Source text: • the HT1080 line: Cells originating from epithelial lines, tools commonly used for cell adhesion studies, were first used. The cells of the HT1080 line (fibrosarcoma, Human), American Type Culture Collection CCL-121. • primary human keratinocytes: For the cell viability and migration test, freshly isolated normal human keratinocytes were used. Human keratinocytes were obtained from preputial biopsy (surgical waste, tissue bank and cells, Edouard Herriot Hospital). The culture medium used during the experiments was the medium defined for KGM-Gold keratinocytes sold by Lonza Bioscience containing 0.15 mM of CaCl2, pH 7.2 to 7.4. The keratinocytes were obtained according to the Boyce and Ham technique (Cultivation, frozen storage, and clonal growth of normal human epidermal keratinocytes in serum free-media, Tiss Cuit. Meth. 1985, 9:83-93). The pieces of skin, after rinsing in PBS buffer containing antibiotics, were freed of the fat tissue and cut into 3 mm^2 pieces, then placed in a sterile solution of 0.25% trypsin in PBS for 16 h at 4° C. The dermis/epidermis separation was carried out in a Petri dish containing culture medium in order to stop the action of trypsin. The epidermis fragments were sucked in and discharged several times to detach the free basal cells. […] After a short incubation at 37° C., the cells were detached, counted, and re-seeded. […]
After seeding the cells, the plates were placed in an incubator at 37° C. in a 5% CO2 atmosphere. […] The absorbance was read at 570 nm using a plate reader (Victor^2 V Spectrophotometer, Perkin Elmer). […] The negative control value is the average of the absorbance of the three control wells (BSA). This was subtracted from each of the absorbance values obtained for the experimental points. The averages of the absorbance values for each of the conditions were calculated and were presented in the form of a curve, with on the y-axis, the average values of the absorbance, and on the x-axis, the various quantities of substrate immobilized in the wells (in μg or mole). […]

[1] = system: freshly isolated human primary keratinocytes; assay: Wound closure test of a sheet of primary keratinocytes; format: cell-based; settings: for wound closure activity, ranking of peptides: increasing order LRIRFTYK, CSGLRIRFTYKSGC, CLRIRFTYKC, Example 11, FIG. 10
Source text: • the HT1080 line: Cells originating from epithelial lines, tools commonly used for cell adhesion studies, were first used. The cells of the HT1080 line (fibrosarcoma, Human), American Type Culture Collection CCL-121. • primary human keratinocytes: For the cell viability and migration test, freshly isolated normal human keratinocytes were used. Human keratinocytes were obtained from preputial biopsy (surgical waste, tissue bank and cells, Edouard Herriot Hospital). The culture medium used during the experiments was the medium defined for KGM-Gold keratinocytes sold by Lonza Bioscience containing 0.15 mM of CaCl2, pH 7.2 to 7.4. The keratinocytes were obtained according to the Boyce and Ham technique (Cultivation, frozen storage, and clonal growth of normal human epidermal keratinocytes in serum free-media, Tiss Cuit. Meth. 1985, 9:83-93). The pieces of skin, after rinsing in PBS buffer containing antibiotics, were freed of the fat tissue and cut into 3 mm^2 pieces, then placed in a sterile solution of 0.25% trypsin in PBS for 16 h at 4° C. The dermis/epidermis separation was carried out in a Petri dish containing culture medium in order to stop the action of trypsin. The epidermis fragments were sucked in and discharged several times to detach the free basal cells. After centrifuging, 3.10^4 live cells were seeded per cm2 on dishes for tissue cultivation (Corning, Polylabo, France). The keratinocytes were cultured at 37° C. in a CO2 incubator (5% CO2, 95% air and 98% moisture). The sub-culture took place when the cells reached the sub-confluence. The sheet of cells was then rinsed with PBS, then covered with a solution of Trypsin-EDTA (0.05-0.02%). After a short incubation at 37° C., the cells were detached, counted, and re-seeded.
6-well plates (Costar) are covered with collagen I for 16 h then rinsed with PBS. Three inserts with two Ibidi-sterile wells (Ibidi, reference: 80209) are deposited in each of the wells. 2×10^4 keratinocytes are deposited in each insert well in KBM-Gold. After two hours of incubation in humid air at 37° C., composed of 5% CO2 and 95% atmospheric air, the culture medium is sucked out and the inserts removed. KBM-Gold with no supplement is added to each of the wells of the plate. The cells are thus: not treated (medium alone), treated with supplement-free KBM-Gold containing the peptides studied (25 μg/ml), or treated with supplement-free KBM-Gold containing EGF at 10 ng/ml (Peprotech). The cultures are stopped at 12 h and 24 h, the media are sucked out, and the cells are fixed with 2% PBS-Paraformaldehyde for 20 minutes. After the fixator has been sucked out, the cells are colored with a 0.1% solution of Crystal Violet in ultrapure water for 30 minutes. The Crystal Violet is removed and the wells are rinsed with water. Image acquisitions are carried out and the injuries are quantified using Adobe Photoshop CS3 software.

[2] = system: keratinocytes of the epidermis and other epithelial cells; settings: prior patent EP1784423 of the Applicant; cited from earlier work
[3] = 25 μg/ml peptide, 12 and 24 h, Example 5, FIG. 4

With CSGLRIRATYGSGC (Other sequences) the “adhesion induction activity relative to the LRIRATYG motif” value (HT1080 cells; low concentration of immobilized peptide, Examples 2 and 3, FIG. 1 and 2) was “activity being doubled at a low concentration”, the “wound closure activity compared to TALRIRATYGEY and LRIRATYG” value [1, 3] was “significantly greater activity at 12 and 24 h” and the “wound closure activity compared with the other peptides” value ([1]; 25 μg/ml peptide, 12 h and 24 h, Example 4, FIG. 3) was “significantly greater than that of the other peptides”. The “wound closure compared with negative control” value ([1]; 25 μg/ml peptide, 12 h and/or 24 h post-injury, negative control culture medium alone, Example 4, FIG. 3) was “very significantly greater than that of the negative control” and the “wound closure activity compared with negative control” value ([1]; 25 μg/ml peptide, time not given, Example 5, FIG. 4) was “significantly greater than that of the negative control”.
With LRIRATYK (Other sequences) the “adhesion response dependent on the amount of peptide immobilized in the wells” value (HT1080 cells) was “decreases”.
For “CLRIRFTYKC (disulfide 1-10 (inferred); not fully specified)”, the “wound closure activity, ranking of peptides” value [1] was “most significant activities”.
For “CSGLRIRFTYKSGC (disulfide 1-14 (inferred); not fully specified)”, the “wound closure activity, ranking of peptides” value [1] was “most significant activities”.
With LRIRKTYG (Other sequences) the “adhesion response dependent on the amount of peptide immobilized in the wells” value (HT1080 cells) was “disappears”.
In the case of “TALRIRATYGEY (Other sequences) [reference compound]”, the “wound closure activity, LRIRATYG and TALRIRATYGEY compared between them” value [1, 3] is given as “equivalent activity between them”, the “wound closure activity compared with negative control” value ([1]; 25 μg/ml peptide, 24 h, negative control culture medium alone, Example 5, FIG. 4) is given as “significantly greater than that of the negative control” and the “induction of cell adhesion” value [2] is given as “specifically induces the adhesion”.

Source: patent publication US20250034208A1, “PEPTIDES AND PHARMACEUTICAL AND COSMETIC COMPOSITIONS CONTAINING THEM” (LABORATOIRES D'ANJOU, priority 2021, published 2025)
